Laboratory results taken from ChEMBL document CHEMBL2401661, “Cyanidin, a natural flavonoid, is an agonistic ligand for liver X receptor alpha and beta and reduces cellular lipid accumulation in macrophages and hepatocytes” (Bioorg Med Chem Lett, 2013).
Blank lines part the entries; values can stand above or below the molecule they belong to. Calls of active or inactive are those of the source. No cut-off for these calls is given here.

Columns and labels:
[1] = biological target: T1, Oxysterols receptor LXR-beta (Homo sapiens, UniProt P55055); assay: Binding affinity to human LXRbeta-LBD by surface plasmon resonance
[2] = biological target: T1, Oxysterols receptor LXR-beta; assay: Agonist activity at human LXRbeta-LBD assessed as recruitment of co-activator peptide after 2 hrs by TR-FRET assay
[3] = biological target: T2, Oxysterols receptor LXR-alpha (Homo sapiens) (UniProt Q13133); assay: (§1) Binding affinity to human LXRalpha-LBD by surface plasmon resonance
T2 sequence (whole entry): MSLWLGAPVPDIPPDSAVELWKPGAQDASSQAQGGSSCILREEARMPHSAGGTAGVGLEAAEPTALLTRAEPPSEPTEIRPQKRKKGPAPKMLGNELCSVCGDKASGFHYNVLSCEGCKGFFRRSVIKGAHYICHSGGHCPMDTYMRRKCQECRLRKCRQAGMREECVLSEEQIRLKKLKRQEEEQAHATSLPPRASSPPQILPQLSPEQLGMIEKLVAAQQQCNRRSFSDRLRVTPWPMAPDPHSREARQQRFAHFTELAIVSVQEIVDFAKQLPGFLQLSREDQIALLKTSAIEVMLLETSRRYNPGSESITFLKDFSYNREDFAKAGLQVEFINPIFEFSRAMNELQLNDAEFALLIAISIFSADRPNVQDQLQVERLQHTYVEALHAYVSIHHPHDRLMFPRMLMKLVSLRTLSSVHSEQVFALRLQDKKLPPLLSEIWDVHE

[4] = biological target: T2, Oxysterols receptor LXR-alpha (Homo sapiens); assay: (§2) Agonist activity at human LXRalpha-LBD assessed as recruitment of co-activator peptide after 2 hrs by TR-FRET assay
[5] = biological target: T3, Oxysterols receptor LXR-alpha (Homo sapiens, UniProt Q13133); assay: as §2
T3 sequence (Q13133 whole entry): T2 sequence (whole entry)

[6] = biological target: T2, Oxysterols receptor LXR-alpha (Homo sapiens); assay: Agonist activity at LXRalpha (unknown origin) expressed in CHOK1 cells assessed as induction of transactivation activity at 100 uM after 24 hrs by luciferase reporter gene assay relative to control; type: cell-based; details: CHO-K1
[7] = biological target: T1, Oxysterols receptor LXR-beta; assay: Agonist activity at LXRbeta (unknown origin) expressed in CHOK1 cells assessed as induction of transactivation activity at 100 uM after 24 hrs by luciferase reporter gene assay relative to control; type: cell-based; details: CHO-K1
[8] = biological target: T4, Liver X receptor (Homo sapiens) (UniProt Q13133+P55055); assay: Agonist activity at LXR in human HepG2 cells assessed as upregulation of SREBP1C expression at 100 uM after 24 hrs by RT-qPCR analysis relative to control; type: cell-based
[9] = biological target: T4, Liver X receptor (Homo sapiens); assay: Agonist activity at LXR in human THP1 cells assessed as reduction in cellular triglyceride after 24 hrs; type: cell-based; details: THP-1
[10] = biological target: T4, Liver X receptor (Homo sapiens); assay: Agonist activity at LXR in human THP1 cells assessed as reduction in cellular cholesterol after 24 hrs; type: cell-based; details: THP-1
[11] = biological target: T4, Liver X receptor (Homo sapiens); assay: Agonist activity at LXR in human HepG2 cells assessed as upregulation of ABCA1 expression at 100 uM after 24 hrs by RT-qPCR analysis relative to control; type: cell-based
[12] = biological target: T4, Liver X receptor (Homo sapiens); assay: Agonist activity at LXR in human HepG2 cells assessed as upregulation of ABCG5 expression at 100 uM after 24 hrs by RT-qPCR analysis relative to control; type: cell-based
[13] = biological target: T4, Liver X receptor (Homo sapiens); assay: Agonist activity at LXR in human HepG2 cells assessed as reduction in cellular triglyceride at 100 uM after 24 hrs; type: cell-based; set-up: scale not given: the % may be the effect or the level left
[14] = biological target: T3, Oxysterols receptor LXR-alpha; assay: as §1
[15] = biological target: T4, Liver X receptor (Homo sapiens); assay: Agonist activity at LXR in human HepG2 cells assessed as reduction in cellular triglyceride after 24 hrs; type: cell-based
[16] = biological target: T2, Oxysterols receptor LXR-alpha (Homo sapiens); assay: Agonist activity at LXRalpha (unknown origin) expressed in CHOK1 cells assessed as induction of transactivation activity at 50 uM after 24 hrs by luciferase reporter gene assay relative to control; type: cell-based; details: CHO-K1
[17] = biological target: T1, Oxysterols receptor LXR-beta; assay: Agonist activity at LXRbeta in human HepG2 cells assessed as LXRbeta transcription at 50 to 100 uM after 24 hrs by RT-qPCR analysis; type: cell-based
[18] = biological target: T2, Oxysterols receptor LXR-alpha (Homo sapiens); assay: Induction of LXRalpha transcription in human HepG2 cells at 50 to 100 uM after 24 hrs by RT-qPCR analysis relative to control; type: cell-based
[19] = biological target: T4, Liver X receptor (Homo sapiens); assay: Agonist activity at LXR in human THP1 cells assessed as reduction in cellular triglyceride at 100 uM after 24 hrs; type: cell-based; set-up: scale not given: the % may be the effect or the level left; details: THP-1
[20] = biological target: T4, Liver X receptor (Homo sapiens); assay: Agonist activity at LXR in human HepG2 cells assessed as reduction in cellular cholesterol after 24 hrs; type: cell-based

T4 sequence (P55055 whole entry, looked up, one chain of several): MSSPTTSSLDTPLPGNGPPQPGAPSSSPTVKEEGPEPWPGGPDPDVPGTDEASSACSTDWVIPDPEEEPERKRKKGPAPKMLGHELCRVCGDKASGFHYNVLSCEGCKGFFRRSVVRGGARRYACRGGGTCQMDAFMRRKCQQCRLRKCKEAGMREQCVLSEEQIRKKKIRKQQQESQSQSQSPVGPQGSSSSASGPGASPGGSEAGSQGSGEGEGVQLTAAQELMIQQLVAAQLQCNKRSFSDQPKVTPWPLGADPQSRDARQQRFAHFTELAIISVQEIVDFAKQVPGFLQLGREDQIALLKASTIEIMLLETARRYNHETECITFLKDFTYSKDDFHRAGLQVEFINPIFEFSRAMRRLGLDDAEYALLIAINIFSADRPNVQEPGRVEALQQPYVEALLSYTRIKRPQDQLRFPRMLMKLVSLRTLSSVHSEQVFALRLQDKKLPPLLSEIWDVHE
T1 sequence (P55055 whole entry, the tested form may be a part): as the sequence (P55055 whole entry, looked up, one chain of several) above

Activity [1]: inactive | Activity [2]: inactive | Activity [3]: inactive | Activity [4]: inactive
SMILES: O=C(O)c1ccc(O)c(O)c1

Activity [1]: inactive | Activity [2]: inactive | Activity [3]: inactive | Activity [4]: inactive
SMILES: O=Cc1c(O)cc(O)cc1O

SMILES: CC(C)CC[C@@H](O)[C@@H](C)[C@H]1CC[C@H]2[C@@H]3CC=C4C[C@@H](O)CC[C@]4(C)[C@H]3CC[C@]12C [22(R)-HYDROXYCHOLESTEROL]
EC50 [5]: 1 µM

Activity [6]: 59% | Activity [7]: 33% | fold change (FC) [8]: 3.6 | Activity [9]: Dose-dependent effect | Kd [1]: 73.2 µM | Activity [10]: Dose-dependent effect | fold change (FC) [11]: 2.5 | EC50 [2]: 125 µM | fold change (FC) [12]: 1.4 | Activity [13]: -23% | Kd [14]: 2.2 µM | Activity [15]: Dose-dependent effect | Activity [16]: 32% | Activity [17]: inactive | fold change (FC) [18]: 1.5 | Activity [19]: -21% | EC50 [5]: 3.5 µM | Activity [20]: Dose-dependent effect
SMILES: Oc1cc(O)c2cc(O)c(-c3ccc(O)c(O)c3)[o+]c2c1 [CYANIDIN]
